# Results as given in US20230272370A1, “GENETICALLY ENCODED YEATS DOMAIN PROBE AND APPLICATIONS THEREOF” (THE UNIVERSITY OF HONG KONG, priority 2020, published 2023).
# No end group written: not given here.
# B1: V3-GAL4: genetically encoded YEATS domain probe fused with a GAL4 DNA binding domain, 'bait' (protein)
# chain: KQTARKSTGGMKLLSSIEQACDICRLKKLKCSKEKPKCAKCLKNNWECRYSPKTKRSPLTRAHLTEVESRLERLEQLFLLIFPREDLDMILKMDSLQDIKALLTGLFVQDNVNKDAVTDRLASVETDMPLTLRQHRISATSSSEESSNKGQRQLTVS
# Legend:
# AF9 protein = assay: FRAP of AF9-sfGFP in HEK 293T cells (chromatin binding of AF9); format: cell-based, human
# From the text: In one embodiment, fluorescence recovery after photobleaching (FRAP) may be used to analyze diffusion and binding of proteins in living cells. It has also been used to assess the cellular efficiency of bromodomain inhibitors in living cells.
# In the FRAP experiments, the protein of interest is genetically tagged with a fluorescent protein (e.g., GFP) and expressed inside the cell. Then a portion of the fluorescent-tagged protein are photobleached by an intense laser pulse, and the fluorescence recovery of that photobleached region, which is caused by the migration of fluorescent-tagged proteins back into the bleached area, is monitored over time (FIG. 27a). A fluorescence recovery curve can be generated by plotting the fluorescence intensity with time, and the half time (t1/2), which is the time that the fluorescence intensity takes to recover to half, could also be calculated (FIG. 27b).
# Since AF9 protein was reported to associate with chromatin by its YEATS domain, we reasoned that the V3 inhibitor would reduce the binding of AF9 to chromatin and increase its mobility. To test this hypothesis, I fused sfGFP to the C-terminal of AF9 protein and replaced the C-terminal sfGFP of V3-NLS and V3C-NLS to a red fluorescence mCherry protein to avoid fluorescence overlap in FRAP experiments. […]
# HEK 293T cells were seeded in 3.5 cm confocal dish at a density of 4-6×10^5 cells per well in 2 mL complete growth medium and let them reach 60-80% confluency at the time of transfection. […] An argon laser (488 nm) was used for photobleaching and fluorescence imaging of sfGFP. The detector was set to detect fluorescence between 500 and 550 nm. […] Fluorescence recovery of sfGFP was monitored by a time series imaging.
# The average fluorescence intensity was measured for three regions at each imaging time point, a bleached region (Fbl), a non-bleached reference region (Fref) to correct for the FRAP curve for photofading caused by imaging, the location of reference region should be as far apart as possible from the bleached region. […]
# AF9 YEATS domain (human) = AF9 YEATS domain (human) (UniProt P42568); assay: ITC, 25° C., 300 µM V3 titrated into 30 µM AF9 YEATS domain
# CobB = target: T1, CobB (Escherichia coli, UniProt P75960); assay: ESI-MS of V3 expressed in E. coli with NAM (CobB deacylation); format: cell-based
# T1 construct: endogenous in cells; host or cells: E. coli DH10B
# Method: Since nicotinamide (NAM) is a known inhibitor of the sirtuin family of enzymes, I expressed V3 in the presence of 20 mM NAM.
# However, the V3 protein expression level was severely attenuated in the presence of 20 mM NAM (data not shown). Therefore, I attempted several lower NAM concentrations and assessed the purified V3 protein using ESI-MS. […] Thus, 10 mM NAM was added to the culture medium for the subsequent expression of V3 in E. coli.
# DH10B cells harboring pEVOL-KfuRS and pBad-V3-2 plasmid were cultured in LB plus corresponding antibiotics. Protein expression was induced by adding 0.2% arabinose, 10 mM NAM, and 1 mM Kfu when O.D. 600 reached 0.4. After expression at 37° C. for 20 h, cells were harvested and washed with PBS. Protein purification was the same as sfGFP150Kfu except that 10 mM NAM was added to lysis buffer to prevent CobB deacylation. V3C was expressed and purified the same as V3.
# AF9 YEATS domain = target: T2, AF9 YEATS domain (Homo sapiens, UniProt P42568); assay: Isothermal titration calorimetry (ITC) with AF9 YEATS domain; format: binding; details: 25° C.
# T2 sequence (P42568 1-138 limits assumed): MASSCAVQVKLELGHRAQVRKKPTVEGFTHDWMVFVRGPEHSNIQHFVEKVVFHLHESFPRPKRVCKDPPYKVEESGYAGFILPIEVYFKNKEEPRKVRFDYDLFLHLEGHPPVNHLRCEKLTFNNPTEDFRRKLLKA
# Method: Next, I tested whether V3 protein could bind to the YEATS domains and act as a YEATS domain inhibitor. Isothermal titration calorimetry (ITC) was performed to determine the dissociation constant (Kd) between V3 and all four YEATS domain-containing proteins in humans (i.e. AF9, ENL, Gas41, and YEATS2).
# ITC was first performed with V3 protein and the AF9 YEATS domain.
# Experiments were conducted at 25° C. on a MicroCal PEAQ-ITC titration calorimeter (MicroCal). The buffer for the titration is (150 mM NaCl, 50 mM HEPES, 1 mM TCEP, pH 7.5). Proteins were dialyzed to the titration buffer for overnight before the experiment. The reaction cell contained 200 μL of 30 μM YEATS domain proteins, which was titrated with 300 μM V3 or V3C proteins (10-fold higher than the YEATS domain protein concentration used). The titration contained 20 injections, first 0.5 μL, and all subsequent injections of 2 μL. The binding isotherm was fit with MicroCal PEAQ-ITC analysis software, using a single set of independent sites to determine the thermodynamic dissociation constants and stoichiometry.
# V3-GAL4/AF9-VP64 complex = target: T3, V3-GAL4/AF9-VP64 complex (Homo sapiens, UniProt P42568); assay: Luciferase-based two-hybrid assay (V3-GAL4 bait, AF9-VP64 prey); format: cell-based; details: V3-GAL4 bait with AF9-VP64 prey, normalized to V3C-GAL4
# T3 construct: expressed in transfected cells; host or cells: HEK 293T
# T3 sequence (P42568 1-568): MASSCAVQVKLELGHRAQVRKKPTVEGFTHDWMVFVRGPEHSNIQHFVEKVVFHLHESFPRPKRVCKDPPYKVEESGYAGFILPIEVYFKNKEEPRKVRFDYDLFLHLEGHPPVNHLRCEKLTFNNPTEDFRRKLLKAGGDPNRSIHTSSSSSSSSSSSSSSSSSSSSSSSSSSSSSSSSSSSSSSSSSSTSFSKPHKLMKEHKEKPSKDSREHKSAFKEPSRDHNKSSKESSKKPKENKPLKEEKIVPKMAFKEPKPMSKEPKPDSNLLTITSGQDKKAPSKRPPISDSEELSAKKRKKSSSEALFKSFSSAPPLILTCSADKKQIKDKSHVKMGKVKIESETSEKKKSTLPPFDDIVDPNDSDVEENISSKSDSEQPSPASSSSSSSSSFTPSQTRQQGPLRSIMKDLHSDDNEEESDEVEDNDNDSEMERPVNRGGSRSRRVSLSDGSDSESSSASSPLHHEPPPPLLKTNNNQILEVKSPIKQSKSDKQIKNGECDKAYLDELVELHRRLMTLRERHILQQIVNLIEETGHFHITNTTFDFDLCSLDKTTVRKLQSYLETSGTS
# Method: FIG. 34A-34D Luciferase-based two hybrid assay. (A) Schematic of the Luciferase-based two hybrid assay. (B) Schematic showing V3-GAL4 and V3C-GAL4 fusion proteins. (C) Immunoblotting analysis the expression of V3-GAL4 and V3C-GAL4 in the presence or absence of 1 mM Kfu in HEK 293T cells. (D) Relative luciferase signal of V3-GAL4 or V3C-GAL4 ‘bait’ in the presence of AF9-VP64 ‘prey’ protein, and with the addition of different concentrations of iMLLT. The luminescence of all the samples was normalized to the V3C-GAL4 sample. Error bars represent SEM from three biological replicates.
# To solve the problems in current cell-based methods, as well as develop a robust cell-based technology for the in vivo screening and validation of YEATS domain inhibitors. We sought out to take advantage of the well-developed luciferase-based two-hybrid assay. In the two-hybrid assay, the genetically encoded YEATS domain probe was fused with a GAL4 DNA binding domain and served as ‘bait’, while a transcription activation domain (VP64) was linked to AF9 protein and acted as ‘prey’ (FIG. 34a, b, c). […]
# T1 sequence (P75960 whole entry): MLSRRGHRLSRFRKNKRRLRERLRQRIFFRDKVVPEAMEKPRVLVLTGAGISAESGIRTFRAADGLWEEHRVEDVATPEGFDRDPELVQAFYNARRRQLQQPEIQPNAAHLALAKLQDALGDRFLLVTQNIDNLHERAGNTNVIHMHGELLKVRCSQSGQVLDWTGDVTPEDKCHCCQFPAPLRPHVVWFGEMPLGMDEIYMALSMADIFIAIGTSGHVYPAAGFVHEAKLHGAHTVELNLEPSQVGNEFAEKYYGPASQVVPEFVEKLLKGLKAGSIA
molecule,measurement,setting,value
"O=C(CCCCCCC(=O)Nc1ccccc1)NO [SAHA, suberoylanilide hydroxamic acid]",half recovery time (t1/2) of AF9-sfGFP,"AF9 protein; SAHA 2.5 μM for 18 hours before FRAP, untreated 2.5±0.1 seconds",4.7 ± 0.2 s
same,"final fluorescence (fluorescence at plateau), of the initial intensity","AF9 protein; SAHA-treated cells, untreated 90%",75%
V3-NLS (mCherry): V3-NLS with C-terminal sfGFP replaced by red fluorescence mCherry protein (KQTARKSTGGHHHHHHKRPAATKKAGQAKKKKL; also: C-terminal mCherry fusion (carrier not in chain)),half recovery time (t1/2) of AF9-sfGFP,"AF9 protein; inhibitor co-expressed, 2.5 μM SAHA added to all groups, no inhibitor control 4.7±0.2 s",3.1 ± 0.2 s
V3 protein (genetically encoded YEATS domain inhibitor V3; histone H3 (4-13) with 2-furancarbonyl lysine at K9 fused to sfGFP and 6×His tag) (designed binder),Kd,AF9 YEATS domain (human),2.35 µM
"NC(=O)c1cccnc1 [NAM, nicotinamide]",inhibition of the deacylation activity of CobB,CobB; 10 mM NAM,sufficient to inhibit
same,inhibition of the deacylation activity of CobB,CobB; 20 mM NAM,completely inhibits
V3C: control inhibitor: H3 (4-13) with a normal lysine at the H3 K9 site fused to N-terminal of sfGFP (KQTARKSTGG; also: C-terminus fused to sfGFP),dissociation constant (Kd),AF9 YEATS domain,no detectable binding
B1,activation level of luciferase,V3-GAL4/AF9-VP64 complex,around 20 folds
